This is an account of results in BindingDB's records for doi:10.1016/S0960-894X(01)80994-X (1993).

pIC50: −log10 of the molar value. Where a SMILES comes first, the peptide text is derived from it. The star is where a group is joined. Cbz = O=C(OCc1ccccc1)*

This test is described as follows: Inhibition of putative Endothelin-converting enzyme partially purified from rabbit lung membranes.
For the molecule `COC(=O)[C@H](Cc1c[nH]c2ccccc12)NC(=O)[C@H](CS)NC(=O)OCc1ccccc1` [(S)-2-[2-((R)-Benzyloxycarbonylamino)-3-mercapto-propionylamino]-3-(1H-indol-3-yl)-propionic acid methyl ester] (Cbz-Cys-Trp-OMe), the pIC50 (commonly the negative decadic logarithm of the IC50, by convention in mol/L) was 4.33. To `COC(=O)[C@H](CC(C)C)NC(=O)[C@@H](CS)NC(=O)OCc1ccccc1` [(S)-2-((S)-2-Benzyloxycarbonylamino-3-mercapto-propionylamino)-4-methyl-pentanoic acid methyl ester] belongs 5.40. Under `O=C(N[C@@H](CS)C(=O)N[C@@H](Cc1c[nH]c2ccccc12)C(=O)O)OCc1ccccc1` [(S)-2-((R)-2-Benzyloxycarbonylamino-3-mercapto-propionylamino)-3-(1H-indol-3-yl)-propionic acid] (Cbz-Cys-Trp-OH) stands 4.52; under `CC(C)CC(C(=O)NO)C(=O)N[C@@H](Cc1c[nH]c2ccccc12)C(=O)O` (stereo partly drawn) [(S)-2-(2-Hydroxycarbamoyl-4-methyl-pentanoylamino)-3-(1H-indol-3-yl)-propionic acid], 4.62; under `COC(=O)[C@H](Cc1c[nH]c2ccccc12)NC(=O)[C@H](CC(C)C)NC(=O)[C@H](CS)NC(=O)OCc1ccccc1` [2-[(S)-2-((R)-2-Benzyloxycarbonylamino-3-mercapto-propionylamino)-4-methyl-pentanoylamino]-3-(1H-indol-3-yl)-propionic acid (S)-methyl ester] (Cbz-Cys-Leu-Trp-OMe), 4.51.
